Reference: publication PMC3095510 (Biomacromolecules, 2011)
Ends that are not written are not given here.

System: anthrax lethal toxin (PA and LF), RAW264.7 cells

Sequence: HTSTYWWLDGAP
- concentration up to which cytotoxicity was not inhibited: > 2000 µM
